From patent US20100179225A1, “POI Prevention” (CYTOKINE PHARMASCIENCES, INC., priority 2008, published 2010)

What was measured:
[1] = test system: p38-MAPK; assay: p38-MAPK phosphorylation in ME lysates after intestinal manipulation (immunoblot); type: in vivo, C57BL/6J mice; settings: 5 mg/kg i.v. preoperative; 30 minutes after operation; compared to placebo group
Excerpt: (§1) The small bowel of the animals was subjected to a standardized, surgical manipulation (IM) as described previously (Kalff J C, Schraut W H, Simmons R L et al. Surgical manipulation of the gut elicits an intestinal muscularis inflammatory response resulting in postsurgical ileus. Ann Surg 1998; 228:652-663; Wehner S, Schwarz N T, Hundsdoerfer R et al. Induction of IL-6 within the rodent intestinal muscularis after intestinal surgical stress. Surgery 2005; 137:436-446). In brief, after anesthesia a midline abdominal incision was made into the peritoneal cavity. The entire small bowel was eventuated and manipulated with standardized moderate intensity using two moist cotton applicators as described previously. After IM, the laparotomy was closed by one layer of continuous suture, except when probe sampling was conducted within 20 minutes after surgery. […]
p38-MAPK and JNK/SAPK phosphorylation were analyzed in C57BL/6J mice 15, 30 and 60 minutes after IM and in unoperated controls. […] Finally, the sonicated samples were centrifuged at 13.000×g for 10 minutes, and total protein concentration was determined with Pierce BCA protein assay (Perbio, Bonn, Germany). […]
After PAGE, proteins were blotted on Immobilon-P […] PVDF membranes. […] Chemiluminscence signals were detected with a LAS 4000 system (Fujifilm, Duesseldorf, Germany).

[2] = test system: ICAM-1 mRNA; assay: Proinflammatory gene expression in ME, real-time RT-PCR: ICAM-1; type: in vivo, mice; settings: 5 mg/kg i.v. preoperative
Excerpt: as §1, with “cavity.” for “cavity. The entire small bowel was eventuated and manipulated with standardized moderate intensity using two moist cotton applicators as described previously. After IM, the laparotomy was closed by one layer of continuous suture, except when probe sampling was conducted within 20 minutes after surgery.”
Proinflammatory gene expression was analyzed in placebo and CNI-1493 (5 mg/kg) treated animals at 1, 3, 6 and 24 hours after operation; n=5-7 each group. […] Total RNA was analyzed in ME specimen that was prepared as described before (Wehner S, Behrendt F F, Lyutenski B N et al. Inhibition of macrophage function prevents intestinal inflammation and postoperative ileus in rodents. Gut 2007; 56:176-185). […] Expression of mRNA was quantified in triplicate by a RT-PCR with gene expression assays for […] (MCP-1; #Mm00441242_m1), CCL3 (MIP-1α #Mm00441258_m1), IL-6 (Assay ID #Mm00446190_ml), TNF-α (#Mm00443258_m1) and ICAM-1 (#Mm00516023_m1). […] Data quantification was performed by the ΔΔCT method. […]

## C/C(=N\N=C(N)N)c1cc(NC(=O)CCCCCCCCC(=O)Nc2cc(/C(C)=N/N=C(N)N)cc(/C(C)=N/N=C(N)N)c2)cc(/C(C)=N/N=C(N)N)c1.Cl.Cl.Cl.Cl [CNI-1493]
[1]
  upregulation of p38-MAPK phosphorylation by IM: reduced near to control levels
[2]; 1 hour after IM
  ICAM-1 mRNA expression (fold upregulation): 3.3±0.70 fold
[2]; 3 hours after IM
  ICAM-1 mRNA expression (fold upregulation): 7.2±2.8 fold
